Legend:
[1] = biological target: [3H] Noradenaline reuptake in rat brain tissue; assay: in vitro [3H]noradrenaline reuptake inhibition in rat brain tissue; assay type: biochemical; details: means of ≧3 separate determinations
[2] = biological target: [3H] Dopamine reuptake in rat brain tissue; assay: in vitro [3H]dopamine reuptake inhibition in rat brain tissue; assay type: biochemical; details: means of ≧3 separate determinations

| Structure (SMILES) | Ki [1] [nM] | Ki [2] [nM] |
| --- | --- | --- |
| COc1ccc(C(CN(C)C)C2(O)CCCCC2)cc1 (stereo not shown) [Venlafaxine] | 196 | 2590 |
| CC(NC(C)(C)C)C(=O)c1cccc(Cl)c1 (stereo not shown) [Bupropion] | 2590 | 409 |

From US6365632B1, “Treatment of orthostatic hypotension” (Knoll Pharmaceuticals Company, priority 1999, dated 2002)
